From US20050228180A1, “Alpha, omega-dicarboximide derivatives as useful uro-selective a1a adrenoceptor blockers” (priority 2002, published 2005)
Where a name gives a salt, the structure may show the parent alone.

Tests used:
[1] = target: T1, α1B adrenoceptor (Rattus norvegicus, UniProt P15823); test: Radioligand binding, [3H] prazosin displacement, rat liver membranes; settings: read-out: Affinity (Ki) α1B (Rat Liver)
T1 construct: from tissue; host or cells: rat liver membranes
T1 sequence (P15823 1-515): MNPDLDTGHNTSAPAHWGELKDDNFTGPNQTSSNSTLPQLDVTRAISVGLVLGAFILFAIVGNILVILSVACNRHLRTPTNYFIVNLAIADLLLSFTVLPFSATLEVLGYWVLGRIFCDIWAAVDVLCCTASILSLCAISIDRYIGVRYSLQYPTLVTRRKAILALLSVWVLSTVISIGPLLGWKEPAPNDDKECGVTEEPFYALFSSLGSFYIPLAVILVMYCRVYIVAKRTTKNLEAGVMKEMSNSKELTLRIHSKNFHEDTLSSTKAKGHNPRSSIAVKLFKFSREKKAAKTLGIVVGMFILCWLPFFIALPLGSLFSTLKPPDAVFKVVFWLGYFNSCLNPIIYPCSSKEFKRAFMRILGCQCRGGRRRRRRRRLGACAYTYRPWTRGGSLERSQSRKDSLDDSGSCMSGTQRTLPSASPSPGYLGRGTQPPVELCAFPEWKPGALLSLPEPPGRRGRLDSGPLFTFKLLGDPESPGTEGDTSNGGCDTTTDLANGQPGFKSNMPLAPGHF
How it was run: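 Rat membranes (submaxillary for α1A, liver for α1B; 150-250 μg protein) incubated with [3H]prazosin and compound in Tris 50 mM/EDTA 5 mM pH 7.4, 1 h at 24-25° C. Nonspecific binding with 300 nM prazosin; filtration, counting; Ki via Cheng–Prusoff.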

[2] = target: T2, α1B adrenoceptor (spleen) (Rattus norvegicus, UniProt P15823); test: In vitro functional assay, isolated spleen, phenylepinephrine contraction; assay type: cell-based; settings: read-out: α Adrenoceptor Subtype (pKB) α1B (converted)
T2 construct: Isolated tissues were mounted in organ bath containing Krebs Henseleit buffer; from tissue; host or cells: isolated rat spleen
T2 sequence (P15823 1-515): T1 sequence (P15823 1-515)
How it was run: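 Rat aorta, spleen and prostate strips from urethane-anaesthetised male Wistar rats in Krebs-Henseleit at 37 °C (95% O2/5% CO2), 2 g or 1 g resting tension, 2 h equilibration. Norepinephrine (aorta) or phenylephrine (spleen, prostate) contraction curves run without and with compound at […]; antagonist affinity given as pKB.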

[3] = system: conscious beagle dogs; test: In vivo uroselectivity study: phenylephrine response on MAP and IUP; set-up: species or system dog; settings: 30 μg/kg p.o.
From the text: In order to assess the uroselectivity in vivo, the effects of these compounds were studied on mean arterial pressure (MAP) and intraurethral pressure (UP) in conscious beagle dogs as per the method of Brune et al. (Pharmacol., 1996, 53:356). Briefly, male dogs were instrumented for chronic continuous measurement of arterial blood pressure by implanting a telemetry transmitter (TL11M2-D70-PCT, Data Sci. International, St. Paul, Minn. USA) into the femoral artery, two weeks prior to the study. During the recovery period, the animal was acclimatized to stay in the sling restraint. On the day of testing, overnight fasted animal was placed in the sling restraint. A Swan-Ganz. Balloon tipped catheter was introduced into the urethra at the level of prostate and the balloon was inflated (Brune. et. al. 1996). After recording the base line readings, effect of 16 μg/kg, phenylephrine (i.v.) on MAP and IUP was recorded. The response of phenylephrine to MAP and […] were recorded at 0.5, 1, 2, 3, 4, 6, 9 and 24 hours after the oral administration of vehicle or the test drug. The changes in MAP were recorded on line using Dataquest Software (Data Sci. International, St. Paul, Minn. USA). The change in phenylephrine response on […] administration after the test drug administration was calculated as percent change of that of control values. Area under curve was calculated, and the ratio of the values for MAP and IUP was used for calculating the uroselectivity (Table III).

[4] = percent change of phenylephrine response over 24 hours

Compound: CC(C)Oc1ccccc1N1CCN(CCCN2C(=O)C3CC(O)C(O)CC3C2=O)CC1 (centres unmarked) [Compound No. 23, 2-[3-{4-(2-Isopropoxyphenyl)piperazin-1-yl}propyl]-5,6-dihydroxy-3a,4,5,6,7,7a, hexahydro-1H-isoindole-1,3(2H)-dione-hydrochloride]
- Ki [1]: 127 nM
- Kb [2]: 7.41 nM
- Uroselectivity Ratio IUP/MAP [3]: 5.5
- Area Under Curve IUP [3, 4]: 524
- Area Under Curve MAP [3, 4]: 95
